CC50 and EC50 data for one compound are collected here from patent US9433609B2, “Benzimidazole-imidazole derivatives” (Janssen Sciences Ireland UC, priority 2009, dated 2016).

Bounds are passed on as bounds.

A short description of data set [1]: Counterscreen MT4-LTR-Luc. The class given is cell-based. Particulars: human. An excerpt:
Counterscreen cell lines included a Huh-7 hepatoma cell line containing a human cytomegalovirus major immediate-early promoter-Luc construct (Huh7-CMV-Luc) and an MT4 T-cell line containing a long terminal repeat-Luc reporter (MT4-LTR-Luc).
(The purpose of a counterscreen is to sort out artefacts and off-target activity.)

The subject of data set [2] is HCV genotype 1b replicon with NS5A R30H. The data set is described as follows: Transient HCV 1b replicon assay, NS5A mutant R30H. The class given is cell-based. Particulars: Hepatitis C virus, read-out: EC50 R30H. The source says: In a transient set-up, a Huh-7 lunet hepatoma cell line was transiently transfected with an autonomously replicating RNA encoding a bi-cistronic expression construct. This construct comprises a firefly luciferase reporter gene preceding the NS3-NS5B subgenomic region of HCV (genotype 1a H77 or 1b Con1). Translation of the HCV subgenomic region is mediated by an internal ribosome entry site of encephalomyocarditis virus. The construct is furthermore flanked by 5′ and 3′ untranslated regions of HCV (genotype 1a H77 or 1b Con 1, respectively), which allow for replication of the RNA.
In addition to the wild-type constructs, site-directed mutations were introduced into the transient HCV genotype 1b replicon in the gene encoding for the non-structural protein 5A (NS5A). More precisely, amino acid residues 28, 30, 31 and 93 in NS5A were independently altered.
Cells were plated in 384 well plates in the presence of test and control compounds, which were added in various concentrations. Following an incubation of two days, replication of the HCV subgenomic replicon RNA was measured by assaying luciferase activity (using standard luciferase assay substrates and reagents and a Perkin Elmer ViewLux™ ultraHTS microplate imager). […] The inhibitory activity of the compound was monitored, enabling a dose-response curve for each test compound. […]
Background: Replicon systems follow genome replication, usually without infectious particles.

One may read the CC50 as the concentration that lowers cell viability or growth by half. Higher therefore signals lower toxicity to the cells. Usually EC50 stands for the concentration giving half of the maximal effect. On to `COC(=O)N[C@H](C(=O)N1CCC[C@H]1c1ncc(-c2ccc(-c3ccc4nc([C@@H]5CCCN5C(=O)[C@@H](NC(=O)OC)C(C)C)[nH]c4c3)cc2)[nH]1)C(C)C` [Compound 1], for which, in data set [1], the CC50 was > 984 nM. Besides, in data set [2], the EC50 worked out at 0.6 nM.
